Several values for one entry are separate records, joined by “and”; a condition that tells them apart may be missing. Equal entries are not always repeated. Where two headings read alike, the source gives them in different places.
How the values were obtained:
PC12 = assay: 86Rb ion-flux assay, PC12 positive control cells; type: cell-based
IMR32 = assay: 86Rb ion-flux assay, IMR32 positive control cells; type: cell-based, human
[1] = molecular target: T1, human neuronal nicotinic AChR β4 subunit (Homo sapiens, UniProt P30926); assay: Two-electrode voltage clamp of Xenopus oocytes injected with β4 transcript alone; type: cell-based
T1 construct: expressed in transfected cells; host or cells: Xenopus oocytes injected with in vitro transcript (KEβ4.6/pGEM or pCMV-KEβ4)

[2] = molecular target: T2, human neuronal nicotinic AChR α3 subunit (Homo sapiens, UniProt P32297); assay: Two-electrode voltage clamp of Xenopus oocytes injected with α3 transcript alone; type: cell-based
T2 construct: expressed in transfected cells; host or cells: Xenopus oocytes injected with in vitro transcript

[3] = molecular target: T3, human neuronal nicotinic AChR α3 and β4 subunits (Homo sapiens, UniProt P30926+P32297); assay: Two-electrode voltage clamp of Xenopus oocytes injected with α3 and β4 transcripts; type: cell-based
T3 construct: expressed in transfected cells; host or cells: Xenopus oocytes injected with in vitro transcripts

[4] = molecular target: T3, human neuronal nicotinic AChR α3 and β4 subunits; type: cell-based
[5] = molecular target: human neuronal nicotinic AChR α3 and β2 subunits (Homo sapiens, UniProt P17787+P32297); type: cell-based
human α3β2α5 nAChR = human α3β2α5 nAChR (Homo sapiens, UniProt P17787+P30532+P32297, D398N); type: cell-based
[6] = molecular target: human neuronal nicotinic AChR α7 subunit (Homo sapiens, UniProt P36544); type: cell-based
human α7 nAChR [7] = molecular target: T4, human α7 nAChR (Homo sapiens, UniProt P36544); type: cell-based
human α7 nAChR [8] = molecular target: T4, human α7 nAChR; type: binding
[9] = Rattus norvegicus, PC-12, PC12, agonists and antagonists, read-out: EC50
[10] = Homo sapiens, IMR-32, IMR32, agonists and antagonists, read-out: EC50

Sequence of human neuronal nicotinic AChR α3 and β2 subunits (P17787 26-502, one chain of several): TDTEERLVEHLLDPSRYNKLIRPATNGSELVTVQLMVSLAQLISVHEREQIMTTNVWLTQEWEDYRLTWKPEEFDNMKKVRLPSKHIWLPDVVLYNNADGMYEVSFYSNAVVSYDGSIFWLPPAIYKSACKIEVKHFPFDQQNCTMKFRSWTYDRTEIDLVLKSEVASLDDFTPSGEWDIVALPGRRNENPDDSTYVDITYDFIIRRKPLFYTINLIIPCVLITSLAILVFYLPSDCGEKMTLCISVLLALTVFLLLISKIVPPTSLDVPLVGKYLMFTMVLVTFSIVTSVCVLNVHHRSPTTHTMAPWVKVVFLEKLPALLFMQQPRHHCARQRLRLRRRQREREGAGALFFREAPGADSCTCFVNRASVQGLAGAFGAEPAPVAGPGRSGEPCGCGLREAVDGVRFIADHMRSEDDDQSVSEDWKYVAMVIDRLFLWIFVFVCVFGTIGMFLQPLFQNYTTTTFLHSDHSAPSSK
T4 sequence (P36544 23-502): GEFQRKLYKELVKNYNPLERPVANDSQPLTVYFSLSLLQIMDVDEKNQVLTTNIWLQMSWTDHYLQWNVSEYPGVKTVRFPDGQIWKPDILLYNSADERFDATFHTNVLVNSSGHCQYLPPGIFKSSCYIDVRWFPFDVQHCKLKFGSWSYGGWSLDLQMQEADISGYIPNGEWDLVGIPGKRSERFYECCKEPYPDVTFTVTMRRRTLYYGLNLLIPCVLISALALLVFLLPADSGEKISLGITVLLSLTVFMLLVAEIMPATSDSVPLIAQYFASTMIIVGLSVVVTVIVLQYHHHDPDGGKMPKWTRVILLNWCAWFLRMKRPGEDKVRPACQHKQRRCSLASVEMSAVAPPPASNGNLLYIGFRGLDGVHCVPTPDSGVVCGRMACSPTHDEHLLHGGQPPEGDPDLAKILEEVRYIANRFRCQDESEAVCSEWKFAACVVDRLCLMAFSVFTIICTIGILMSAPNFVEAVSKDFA
T1 sequence (P30926 22-498): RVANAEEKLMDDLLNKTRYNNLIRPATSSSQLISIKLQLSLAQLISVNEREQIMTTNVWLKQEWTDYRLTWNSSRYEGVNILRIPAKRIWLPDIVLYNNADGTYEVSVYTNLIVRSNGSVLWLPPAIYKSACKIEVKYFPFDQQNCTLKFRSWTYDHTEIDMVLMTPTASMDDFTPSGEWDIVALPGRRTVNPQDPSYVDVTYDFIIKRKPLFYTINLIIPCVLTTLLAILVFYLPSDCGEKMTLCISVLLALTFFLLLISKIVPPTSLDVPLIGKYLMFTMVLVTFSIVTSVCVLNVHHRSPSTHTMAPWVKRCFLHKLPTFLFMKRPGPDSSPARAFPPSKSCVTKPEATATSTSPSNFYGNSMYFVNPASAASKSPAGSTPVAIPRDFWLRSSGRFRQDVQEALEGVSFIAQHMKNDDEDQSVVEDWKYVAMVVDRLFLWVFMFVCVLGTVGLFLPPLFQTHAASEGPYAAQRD
Sequence of human α3β2α5 nAChR (P32297 32-505): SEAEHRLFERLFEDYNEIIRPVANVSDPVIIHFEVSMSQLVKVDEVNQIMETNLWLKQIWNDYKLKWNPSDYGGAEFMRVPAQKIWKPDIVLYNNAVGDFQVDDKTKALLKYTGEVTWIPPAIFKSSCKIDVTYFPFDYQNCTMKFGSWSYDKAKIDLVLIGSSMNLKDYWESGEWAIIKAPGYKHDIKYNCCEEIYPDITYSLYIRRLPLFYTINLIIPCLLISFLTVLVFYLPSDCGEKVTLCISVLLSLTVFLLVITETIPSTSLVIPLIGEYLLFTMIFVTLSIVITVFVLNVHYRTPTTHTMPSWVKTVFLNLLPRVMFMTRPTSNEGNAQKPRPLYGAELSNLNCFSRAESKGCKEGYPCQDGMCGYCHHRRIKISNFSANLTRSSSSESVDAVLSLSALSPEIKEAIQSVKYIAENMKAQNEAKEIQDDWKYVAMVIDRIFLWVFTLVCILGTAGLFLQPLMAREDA
Sequence of human α3β2α5 nAChR (P17787 26-502): as the sequence (P17787 26-502, one chain of several) above
Sequence of human neuronal nicotinic AChR α7 subunit (P36544 23-502): as the sequence (P36544 23-502) above

Compound: C[N+](C)(C)CCOC(N)=O.[Cl-] [CCh, carbamylcholine]
- Maximum response (PC12): 3.3 X^b
- EC50 (PC12; read-out: EC50): 35 µM
- Maximum response (IMR32): 7.6 X^c
- EC50 (IMR32; read-out: EC50): 230 µM

Compound: CN1[C@@H]2CC[C@H]1C[C@@H](OC(=O)C(CO)c1ccccc1)C2 (stereo partly shown) [atropine]
- EC50 (IMR32; Homo sapiens, IMR-32): 43 µM

Compound: O=c1cccc2n1C[C@@H]1CNC[C@H]2C1 [cytisine]
- response of oocytes to application of agonist [1]: did not respond
- Maximum response (PC12): 3.6 X^d
- EC50 (PC12; Rattus norvegicus, PC-12): 57 µM
- Maximum response (IMR32): 10 X^e
- EC50 (IMR32; Homo sapiens, IMR-32): 14 µM
- response of oocytes to application of agonist [2]: did not respond
- Number of oocytes responding [3]: 3 of 4 and 5 of 5 and 6 of 6
- inward currents in response to agonist [3]: detectable inward currents
- relative potency of the agonists [3]: cytisine>ACh>nicotine

Compound: COc1cc2c3cc1Oc1cc(ccc1O)C[C@@H]1c4c(cc(OC)c(O)c4Oc4ccc(cc4)C[C@@H]3N(C)CC2)CC[N+]1(C)C [d-tubocurarine]
- EC50 (PC12; read-out: EC50): 0.81 µM
- nicotine-stimulated increase in fluorescence in presence of antagonist [4]: not observed
- EC50 (IMR32; read-out: EC50): 2.5 µM
- block of the current response to ACh [5]: blocked
- nicotine-stimulated increase in fluorescence in presence of antagonist (human α3β2α5 nAChR): not observed
- block of the responses to ACh and nicotine [3]: reproducibly blocked
- blockage of the response to ACh [3]: complete blockage
- reversibility of the inhibition [3]: appeared to be reversible
- block of the response to ACh [6]: blocked

Compound: Clc1ccc(C2CC3CCC2N3)cn1 (stereo not shown) [epibatidine]
- response of individual cells (human α7 nAChR [7]): homogenous manner

Compound: C[N+](C)(C)CCCCCC[N+](C)(C)C [hexamethonium]
- EC50 (IMR32; Homo sapiens, IMR-32): 22 µM

Compound: CNC1(C)C2CCC(C2)C1(C)C (stereo not shown) [mecamylamine]
- EC50 (PC12; [9]): 0.42 µM
- EC50 (IMR32; [10]): 0.11 µM
- block of the responses to ACh, nicotine and cytisine [3]: at least partially blocked

Compound: CN1CCCC1c1cccnc1 (stereo not shown) [nicotine]
- Number of oocytes responding [1]: 0 of 9
- response of oocytes to application of agonist [1]: did not respond
- Maximum response (PC12; PC12, at 200 μM nicotine, 300 μM CCh, 1 mM cytisine (footnotes)): 2.1 X^a
- EC50 (PC12; [9]): 52 µM
- fluorescence (intracellular calcium) after addition of agonist [4]: increased dramatically
- EC50 (IMR32; [10]): 18 µM
- Maximum response (IMR32; IMR32, at 200 μM nicotine, 3 mM CCh, 100 μM cytisine (footnotes)): 7.7 X^a
- Number of oocytes responding [2]: 0 of 8
- response of oocytes to application of agonist [2]: did not respond
- Number of oocytes responding [5]: 2 of 9 and 0 of 9
- fluorescence (intracellular calcium) after addition of agonist (human α3β2α5 nAChR): increased dramatically
- Number of oocytes responding [3]: 4 of 5 and 3 of 4 and 5 of 5 and 6 of 6
- inward currents in response to agonist [3]: detectable inward currents

Compound: α-bungarotoxin
- [3H]-MLA binding displaced (human α7 nAChR [8]): approximately 65%
- IC50 (human α7 nAChR [8]; read-out: IC50, displacement of [3H]-MLA binding): 3 nM
